This note sets out measurements from patent publication US20230086702A1, “SUBSTITUTED 2-AMINO-PYRAZOLYL-[1,2,4]TRIAZOLO[1,5A]PYRIDINE DERIVATIVES AND USE THEREOF” (The Johns Hopkins University, priority 2019, published 2023).

The structures appear in SMILES notation.

For assay [1], the target named is T1, DLK (Homo sapiens, UniProt Q12852).
T1 construct: 10 nM DLK, catalytic domain, Carna Biosiences; purchased Carna Biosciences ('Carna Biosiences' [sic])
T1 sequence (Q12852 125-366 limits assumed): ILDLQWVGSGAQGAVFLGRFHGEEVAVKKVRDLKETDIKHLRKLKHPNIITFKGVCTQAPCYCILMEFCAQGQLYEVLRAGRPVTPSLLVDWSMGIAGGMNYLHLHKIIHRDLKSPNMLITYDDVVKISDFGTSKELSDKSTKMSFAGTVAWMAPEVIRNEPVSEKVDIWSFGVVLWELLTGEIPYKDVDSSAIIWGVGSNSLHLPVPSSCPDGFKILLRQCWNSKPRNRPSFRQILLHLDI
Briefly: DLK biochemical assay (TR-FRET, MKK7 phosphorylation). The procedure: (§1) DLK assay is a biochemical assay format designed to screen for inhibitors of DLK. Enzymatic activity of DLK is measured by monitoring phosphorylation of the physiological substrate MKK7 (MAP2K7, Dual specificity mitogen-activated protein kinase kinase 7). Phosphorylation is detected by a TR-FRET system whereby His-tagged MKK7 is labeled by a XL665-labeled anti-His antibody (FRET acceptor, emission 665 nm). DLK phosphorylates MKK7 at T275/S277, which is detected by an Eu-labeled anti-phospho-MKK7 (T275/S277) antibody (FRET donor, excitation 340 nm). Phosphorylation of MKK7 results in an increased TR-FRET signal (Ratio XL665-channel/Eu-channel) and inhibition of enzymatic activity of DLK decreases the TR-FRET signal.
Assay Protocol for 1536 MTP format: test compounds are predispensed (60 nl) in test plates; +3 μl DLK solution (10 nM DLK, catalytic domain, Carna Biosiences, 0.6 mM DTT in assay buffer); +2 μl substrate solution (15 nM MKK7, LDB; 60 μM ATP; 0.4 mM DTT in assay buffer); 90 min incubation at RT; +2 μl detection mix (5 nM XL665-labeled anti-His antibody, Cisbio; 0.1 nM Eu-labeled anti-phospho-MKK7 (T275/S277), Cisbio/Millipore in detection buffer); 16 h incubation at 37° C.; endpoint measurement BMG (HTRF).
Assay Protocol for 384 low volume MTP format: 1 μl of test compounds is pipetted into test plate; +5 μl DLK solution (10 nM DLK, catalytic domain, Carna Biosiences in assay buffer); +5 μl substrate solution (15 nM MKK7, LDB; 60 μM ATP, in assay buffer); 90 min incubation at RT; +9 μl detection mix (20 nM XL665-labeled anti-His antibody, Cisbio; 0.4 nM Eu-labeled anti-phospho-MKK7 (T275/S277), Cisbio/Millipore in detection buffer); 16 h incubation at 4° C.; endpoint measurement BMG (HTRF).
(§2) All indicated concentrations final concentrations.
(§3) Assay buffer (384 format): 50 mM Hepes pH 7.5, 10 mM MgCl2, 1 mM EGTA, 1 mM DTT, 0.01% Triton X-100, 0.01% BSA, 1:500 Smart Block.
(§4) Detection buffer: 25 mM Tris/HCl pH 7.5, 100 mM EDTA, 100 mM NaCl, 200 mM KF, 0.01% Tween 20, 1:500 Smart Block.
In general terms: TR-FRET usually uses a lanthanide donor and a delayed reading to cut background.

Assay [2] addresses T2, LZK (Homo sapiens, UniProt O43283).
T2 construct: 10 nM LZK, catalytic domain, Carna Biosiences in assay buffer; purchased Carna Biosciences ('Carna Biosiences' [sic])
T2 sequence (O43283 168-409 limits assumed): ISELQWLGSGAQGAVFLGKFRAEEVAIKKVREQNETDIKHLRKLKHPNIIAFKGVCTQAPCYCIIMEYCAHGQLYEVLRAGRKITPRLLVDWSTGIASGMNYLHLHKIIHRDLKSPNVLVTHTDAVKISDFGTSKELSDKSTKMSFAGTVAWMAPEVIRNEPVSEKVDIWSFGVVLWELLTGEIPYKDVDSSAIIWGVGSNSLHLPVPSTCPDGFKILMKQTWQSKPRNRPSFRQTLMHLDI
Briefly: LZK biochemical assay (TR-FRET, MKK7 phosphorylation). The protocol:
as §1, with “LZK” for “DLK”, “LZK.” for “DLK.”, “T275/S277” for “T275/S277,”
Assay Protocol for 384 low volume MTP format: 1 μl of test compound is pipetted into test plate; +5 μl LZK solution (10 nM LZK, catalytic domain, Carna Biosiences in assay buffer); +5 μl substrate solution (15 nM MKK7, LDB; 15 μM ATP, in assay buffer); 90 min incubation at RT; +5 μl detection mix (20 nM XL665-labeled anti-His antibody, Cisbio; 0.4 nM Eu-labeled anti-phospho-MKK7 (T275/S277), Cisbio/Millipore in detection buffer); 16 h incubation at 32° C.; endpoint measurement BMG (HTRF).
as §2, §3, §4

As to `CC[C@@H](c1ccccc1)n1cc(-c2cc(-c3cnn(C(C)C(F)(F)F)c3)c3nc(N)nn3c2)cn1` (mixture of isomers) [II-94, 6-{1-[(15)-1-Phenylpropyl]-1H-pyrazol-4-yl}-8-[1-(1,1,1-trifluoropropan-2-yl)-1H-pyrazol-4-yl][1,2,4]triazolo[1,5-a]pyridin-2-amine], the IC50 in assay [1] was found to be 22 nM; in assay [2] it was 200 nM.

As to `CCC(c1ccc(C(F)(F)F)nc1)n1cc(-c2cc(-c3cc(CO)ccc3Cl)c3nc(N)nn3c2)cn1` (racemic) [II-1, {3-[2-Amino-6-(1-{1-[6-(trifluoromethyl)pyridin-3-yl]propyl}-1H-pyrazol-4-yl)[1,2,4]triazolo[1,5-a]pyridin-8-yl]-4-chlorophenyl}methanol], the IC50 in assay [1] is 6.3 nM; in assay [2] it was 2.3 nM.

In the case of `Nc1nc2c(-c3cc(CO)ccc3Cl)cc(-c3cnn(C(c4ccc(C(F)(F)F)nc4)C4CCOCC4)c3)cn2n1` (racemic) [II-4, {3-[2-Amino-6-(1-{tetrahydro-2H-pyran-4-yl[6-(trifluoromethyl)pyridin-3-yl]methyl}-1H-pyrazol-4-yl)[1,2,4]triazolo[1,5-a]pyridin-8-yl]-4-chlorophenyl}methanol], the half-inhibitory concentration (IC50) was 7 nM in assay [1] and 5.9 nM in assay [2].

Take `CCC(c1ccc(C(F)(F)F)nc1)n1cc(-c2cc(-c3cccc(C(C)(C)O)c3)c3nc(N)nn3c2)cn1` (racemic) [II-7, 2-{3-[2-Amino-6-(1-{1-[6-(trifluoromethyl)pyridin-3-yl]propyl}-1H-pyrazol-4-yl)[1,2,4]triazolo[1,5-a]pyridin-8-yl]phenyl}propan-2-ol]: the IC50 in assay [1] came to 0.8 nM; in assay [2], 3.3 nM.

`CC(C)(O)c1cccc(-c2cc(-c3cnn(C(c4ccc(C(F)(F)F)nc4)C4CCOCC4)c3)cn3nc(N)nc23)c1` (racemic) [II-10, 2-{3-[2-Amino-6-(1-{tetrahydro-2H-pyran-4-yl[6-(trifluoromethyl)pyridin-3-yl]methyl}-1H-pyrazol-4-yl)[1,2,4]triazolo[1,5-a]pyridin-8-yl]phenyl}propan-2-ol]: the IC50 in assay [1] came to 0.7 nM; in assay [2], 0.9 nM.

Regarding `CS(=O)(=O)c1cccc(-c2cc(-c3cnn(C(c4ccc(C(F)(F)F)nc4)C4CCOCC4)c3)cn3nc(N)nc23)c1` (racemic) [II-13, 8-[3-(Methylsulfonyl)phenyl]-6-(1-{tetrahydro-2H-pyran-4-yl[6-(trifluoromethyl)pyridin-3-yl]methyl}-1H-pyrazol-4-yl)[1,2,4]triazolo[1,5-a]pyridin-2-amine], the values for the IC50 in assay [1] and in assay [2] were 0.7 nM and 1.8 nM, respectively.

On to `CCS(=O)(=O)c1cccc(-c2cc(-c3cnn(C(c4ccc(C(F)(F)F)nc4)C4CCOCC4)c3)cn3nc(N)nc23)c1` (racemic) [II-16, 8-[3-(Ethylsulfonyl)phenyl]-6-(1-{tetrahydro-2H-pyran-4-yl[6-(trifluoromethyl)pyridin-3-yl]methyl}-1H-pyrazol-4-yl)[1,2,4]triazolo[1,5-a]pyridin-2-amine], for which the IC50 in assay [1] came to 1.1 nM; in assay [2] it was 3.5 nM.

As for `Nc1nc2c(-c3cccc(S(=O)(=O)C(F)(F)F)c3)cc(-c3cnn(C(c4ccc(C(F)(F)F)nc4)C4CCOCC4)c3)cn2n1` (racemic) [II-19, 6-(1-{Tetrahydro-2H-pyran-4-yl[6-(trifluoromethyl)pyridin-3-yl]methyl}-1H-pyrazol-4-yl)-8-{3-[(trifluoromethyl)sulfonyl]phenyl}[1,2,4]triazolo[1,5-a]pyridin-2-amine], the figures for the IC50 in assay [1] and in assay [2] were 17 nM and 45 nM, respectively.

For `CN(C)c1cccc(-c2cc(-c3cnn(C(c4ccc(C(F)(F)F)nc4)C4CCOCC4)c3)cn3nc(N)nc23)c1` (racemic) [II-22, 8-[3-(Dimethylamino)phenyl]-6-(1-{tetrahydro-2H-pyran-4-yl[6-(trifluoromethyl)pyridin-3-yl]methyl}-1H-pyrazol-4-yl)[1,2,4]triazolo[1,5-a]pyridin-2-amine], the IC50 in assay [1] was 2.2 nM; in assay [2] it was 6.6 nM.

As for `CCC(c1ccc(C(F)(F)F)nc1)n1cc(-c2cc(-c3ccnc(OC(F)F)c3)c3nc(N)nn3c2)cn1` (racemic) [II-25, 8-[2-(Difluoromethoxy)pyridin-4-yl]-6-(1-{1-[6-(trifluoromethyl)pyridin-3-yl]propyl}-1H-pyrazol-4-yl)[1,2,4]triazolo[1,5-a]pyridin-2-amine], the half-maximal inhibitory concentration (IC50) turned out to be 130 nM in assay [1] and 82 nM in assay [2].

Turning to `CC(C)C(c1ccc(C(F)(F)F)nc1)n1cc(-c2cc(-c3ccnc(C(F)(F)F)c3)n3nc(N)nc3c2)cn1` (racemic) [II-28, 7-(1-{2-Methyl-1-[6-(trifluoromethyl)pyridin-3-yl]propyl}-1H-pyrazol-4-yl)-5-[2-(trifluoromethyl)pyridin-4-yl][1,2,4]triazolo[1,5-a]pyridin-2-amine], the IC50 in assay [1] turned out to be 28 nM; in assay [2], 27 nM.

As to `CCC(c1ccc(C(F)(F)F)nc1)n1cc(-c2cc(-c3ccnc(C4(F)CC4)c3)n3nc(N)nc3c2)cn1` (racemic) [II-31, 5-[2-(1-Fluorocyclopropyl)pyridin-4-yl]-7-(1-{1-[6-(trifluoromethyl)pyridin-3-yl]propyl}-1H-pyrazol-4-yl)[1,2,4]triazolo[1,5-a]pyridin-2-amine], the results for the IC50 in assay [1] and in assay [2] were 26 nM and 6.1 nM, respectively.

As for `Nc1nc2cc(-c3cnn(C(c4ccc(C(F)(F)F)nc4)C4CCOCC4)c3)cc(-c3ccnc(C(F)(F)F)c3)n2n1` (racemic) [II-34, 7-(1-{Tetrahydro-2H-pyran-4-yl[6-(trifluoromethyl)pyridin-3-yl]methyl}-1H-pyrazol-4-yl)-5-[2-(trifluoromethyl)pyridin-4-yl][1,2,4]triazolo[1,5-a]pyridin-2-amine], the results for the IC50 in assay [1] and in assay [2] were 15 nM and 7.1 nM, respectively.

Consider `CCC(c1ccc(C(F)(F)F)nc1)n1cc(-c2cc(-c3ccc(C(F)(F)F)nc3)c3nc(N)nn3c2)cn1` (racemic) [II-37, 8-[6-(Trifluoromethyl)pyridin-3-yl]-6-(1-{1-[6-(trifluoromethyl)pyridin-3-yl]propyl}-1H-pyrazol-4-yl)[1,2,4]triazolo[1,5-a]pyridin-2-amine], for which the IC50 in assay [1] was determined as 46 nM; in assay [2], 74 nM.

For the compound `CC(C)C(c1ccc(C(F)(F)F)nc1)n1cc(-c2cc(-c3ccc(C(F)(F)F)nc3)c3nc(N)nn3c2)cn1` (racemic) [II-40, 6-(1-{2-Methyl-1-[6-(trifluoromethyl)pyridin-3-yl]propyl}-1H-pyrazol-4-yl)-8-[6-(trifluoromethyl)pyridin-3-yl][1,2,4]triazolo[1,5-a]pyridin-2-amine], the IC50 came to 44 nM in assay [1] and 120 nM in assay [2].

As a reminder, the IC50 is the concentration at which inhibition is half-maximal.
